29 molecules from patent publication US20220372040A1, “METTL3 MODULATORS” (Accent Therapeutics, Inc., priority 2020, published 2022) can be followed below.

Molecules are shown by their SMILES.

What all share (format): cell-based
Assay [1] relates to MOLM-13 cells. Briefly: MOLM-13 48 Hour cell proliferation assay (Cell Titer-Glo). As to conditions: Homo sapiens. On the procedure:
MOLM-13 48 Hour Cell Proliferation Assay
MOLM-13 (DSMZ) cells were seeded at 1000 cells per well in a volume of 44 μL in a Falcon 384-well tissue culture treated clear bottom microplate in RPMI 1640 media containing 10% fetal bovine serum using a Multidrop Combi (ThermoFisher Scientific). Cells were incubated overnight at 37° C. in a humidified tissue culture incubator. The Mosquito® HTS Liquid Handler was used to make a compound/media intermediate plate by aliquoting […] of compound from the initial compound dilution plate (concentrations ranging from 10.0 mM to 38.0 nM in 100% DMSO) into a V bottom 384-well screen matrix plate containing 49 µL of media containing the appropriate serum (50-fold dilution, 2% DMSO). The Apricot liquid handling system was used to transfer […] compounds from the intermediate plate into the Falcon 384-well tissue culture plate containing 44 μL cells (10-point, 4-fold dilution spanning concentrations 25.0 μM to […], 0.25% DMSO final), and placed in a humidified tissue culture incubator at 37° C. After 48 hours, 25 μL of Cell Titer-Glo reagent (Promega) was added to each well using a Multidrop Combi. The plate was protected from light and placed on an IKA plate shaker for at 300 rpm for 10 minutes at room temperature. The plate was read on an EnVision plate reader (Perkin Elmer) using the Ultra Sensitive Luminescence protocol. Data analysis was performed by normalizing the raw luminescence units to an average of the positive control values for staurosporine (100% cell death) and the negative control values for DMSO (0% cell death). An IC50 was calculated using a 4-parameter logistic nonlinear regression model in GraphPad Prism.
In general terms: Cellular ATP, detected with luciferase, serves as a proxy for viable cell number.

In assay [2] the test system is m^6 A in cellular mRNA of MOLM-13 cells. In words: m^6 A-mRNA LC-MS/MS assay (m^6 A cellular assay). The following applies: Homo sapiens, 24 hours incubation, LC-MS/MS of m^6 A/A in mRNA. A digest of the protocol:
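MOLM-13 cells in RPMI 1640 with 10% FBS dosed 24 h at 37° C. with 8-point, 4-fold series from 25 μM to 1.5 nM, 0.25% DMSO. Extracted mRNA digested to nucleosides and quantified by LC-MS/MS against standards; result expressed as 100*(m^6 A/A).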

Assay [3] concerns MOLM-13 cells. Briefly: MOLM-13 96 Hour cell proliferation assay (Cell Titer-Glo). The following applies: Homo sapiens. Put shortly: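 MOLM-13 cells were seeded at 600 cells/well in RPMI 1640 with 10% FBS, then incubated overnight. Compounds were added at 0.25% DMSO final for 96 h at 37° C, with CellTiter-Glo luminescence read-out. Values normalized to staurosporine (100% death) and DMSO (0%); IC50 from 4-parameter logistic fit.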

Take `CNc1ccc2ccc(OCc3cncc(-n4cc(CC5CC5)c5c(N)ncnc54)c3)cc2n1` [Compound I-29]: the IC50 (commonly the concentration at which inhibition is half-maximal) is less than 1000 nM in assay [1] and 1 to 10 µM in assay [2].

Turning to `CNc1ccc2ccc(CCc3cncc(-n4ccc5c(N)ncnc54)c3)cc2n1` [Compound I-30], the IC50 in assay [1] lay within 1000 to 10000 nM; in assay [2], 1 to 10 µM.

Turning to `CNc1ccc2ccc(OCc3cc(CO)cc(-n4cc(Cl)c5c(N)ncnc54)c3)cc2n1` [Compound I-34], the IC50 in assay [1] was less than 1000 nM; in assay [2], not below 10 µM.

With `CNc1ccc2ccc(OCc3cncc(-n4cc(-c5ccnn5C)c5c(N)ncnc54)c3)cc2n1` [Compound I-35], the IC50 is less than 1000 nM in assay [1] and not below 10 µM in assay [2].

On to `CNc1ccc2ccc(OCc3cncc(-n4c(C)cc5c(N)ncnc54)c3)cc2n1` [Compound I-36], for which the half-maximal inhibitory concentration (IC50) in assay [1] lay in the range of 1000 to 10000 nM; in assay [2], 1 to 10 µM.

Take `CNc1ccc2ccc(OCc3cncc(-n4cc(C5CCCC5)c5c(N)ncnc54)c3)cc2n1` [Compound I-58]: the IC50 in assay [1] is less than 1000 nM; in assay [3], less than 1000 nM; in assay [2], 1 to 10 µM.

In the case of `CCNc1ccc2ccc(OCc3cccc(-n4cc(Cl)c5c(N)ncnc54)c3)cc2n1` [Compound I-61], in assay [3], the IC50 is 1000 to 10000 nM.

For the molecule `CNc1ccc2cc(CCc3cccc(-n4cc(Cl)c5c(N)ncnc54)c3)ccc2n1` [Compound I-70], the IC50 in assay [1] is 1000 to 10000 nM; in assay [3], 1000 to 10000 nM; in assay [2] it was not below 10 µM.

Consider `CNc1ccc2ccc(OCc3cncc(-n4cc(Cl)c5c(N)ncnc54)c3)cc2n1` [Compound I-74, 7-((5-(4-amino-5-chloro-7H-pyrrolo[2,3-d]pyrimidin-7-yl)pyridin-3-yl)methoxy)-N-methylquinolin-2-amine], for which the results for the IC50 in assay [1], in assay [3] and in assay [2] were 1000 to 10000 nM, 1000 to 10000 nM and 1 to 10 µM, respectively.

In assay [3], `CNc1ccc2ccc(OCc3cc(Br)cc(-n4cc(Cl)c5c(N)ncnc54)c3)cc2n1` [Compound I-75] yielded an IC50 of 1000 to 10000 nM.

For `CNc1ccc2ccc(OCc3cccc(-n4cc(Cl)c5c(N)ncnc54)c3)cc2n1` [Compound I-87], the IC50 in assay [1] and in assay [3] was 1000 to 10000 nM each time.

Regarding `Nc1nc2cc(OCc3cncc(-n4ccc5c(N)ncnc54)c3)ccc2cc1Br` [Compound I-111], the concentration for half-maximal inhibition (IC50) in assay [3] was not below 10000 nM.

Consider `CNc1ccc2ccc(OCc3cncc(-n4cc([C@H]5CCCO5)c5c(N)ncnc54)c3)cc2n1` [Compound I-112], for which the figures for the IC50 in assay [3] and in assay [2] were less than 1000 nM and 1 to 10 µM, respectively.

Take `CNc1ccc2ccc(OCc3cncc(-n4cc([C@@H]5CCCO5)c5c(N)ncnc54)c3)cc2n1` [Compound I-113]: the half-inhibitory concentration (IC50) in assay [3] was 1000 to 10000 nM; in assay [2], less than 1 µM.

In the case of `Cn1ccc(-c2cn(-c3cncc(CCc4ccc5ccc(N)nc5c4)c3)c3ncnc(N)c23)n1` [Compound I-114], the IC50 in assay [3] lay within 1000 to 10000 nM.

Regarding `CCc1cc(NCCOC)c2ccc(CCc3cncc(-n4cc(-c5ccn(C)n5)c5c(N)ncnc54)c3)cc2n1` [Compound I-115], the IC50 in assay [3] was less than 1000 nM; in assay [2] it was less than 1 µM.

In assay [3], `CNc1ccc2ccc(CCc3cncc(-n4cc(F)c5c(N)ncnc54)c3)cc2n1` [Compound I-116] showed a half-inhibitory concentration (IC50) of 1000 to 10000 nM.

For the molecule `CCc1cc(N(C)CCOC)c2ccc(CCc3cncc(-n4cc(-c5ccn(C)n5)c5c(N)ncnc54)c3)cc2n1` [Compound I-117], the IC50 in assay [3] is less than 1000 nM; in assay [2], less than 1 µM.

On to `CCc1cc(N2CCC(F)(F)CC2)c2ccc(OCc3cncc(-n4ccc5c(N)ncnc54)c3)cc2n1` [Compound I-118], for which the IC50 in assay [3] lay in the range of 1000 to 10000 nM.

Molecule `CNc1ccc2ccc(OCc3cncc(-n4cc(C(C)C5CC5)c5c(N)ncnc54)c3)cc2n1` (stereo not shown) [Compound I-120] came in with a concentration for half-maximal inhibition (IC50) in assay [3] of 1000 to 10000 nM.

As for `CCc1cc(N2CCNCC2)c2ccc(OCc3cncc(-n4cc(-c5ccn(C)n5)c5c(N)ncnc54)c3)cc2n1` [Compound I-121], the IC50 in assay [3] is less than 1000 nM; in assay [2], 1 to 10 µM.

Consider `CCc1cc(NC)c2ccc(CCc3cncc(-n4cc(-c5ccn(C)n5)c5c(N)ncnc54)c3)cc2n1` [Compound I-122], for which the concentration for half-maximal inhibition (IC50) in assay [3] was less than 1000 nM.

`Cn1ccc(-c2cn(-c3cncc(CCc4ccc5cc(Br)c(N)nc5c4)c3)c3ncnc(N)c23)n1` [Compound I-123] showed a half-inhibitory concentration (IC50) in assay [3] of 1000 to 10000 nM.

`C[C@@H]1CCN1c1ccc2ccc(OCc3cncc(-n4cc(C5CCCC5)c5c(N)ncnc54)c3)cc2n1` [Compound I-124]: in assay [3], the concentration for half-maximal inhibition (IC50) fell in the range of 1000 to 10000 nM.

Regarding `Nc1ncnc2c1c(C1CCCO1)cn2-c1cncc(CCc2ccc3ccc(N4CCC4)nc3c2)c1` (stereo not shown) [Compound I-126], the half-maximal inhibitory concentration (IC50) was in the range of 1000 to 10000 nM in assay [3] and 1 to 10 µM in assay [2].

For the molecule `CCc1cc(NCCCN(C)C)c2ccc(CCc3cncc(-n4ccc5c(N)ncnc54)c3)cc2n1` [Compound I-127], the IC50 in assay [3] was not below 10000 nM.

Turning to `CCNc1ccc2ccc(OCc3cncc(-n4cc(-c5ccn(C)n5)c5c(N)ncnc54)c3)cc2n1` [Compound I-128], the half-maximal inhibitory concentration (IC50) was 1000 to 10000 nM in assay [3] and 1 to 10 µM in assay [2].

In the case of `CNc1ccc2ccc(OCc3cncc(-n4cc(-c5ccc(C)o5)c5c(N)ncnc54)c3)cc2n1` [Compound I-234], the results for the IC50 in assay [3] and in assay [2] were 1000 to 10000 nM and 1 to 10 µM, respectively.

For the molecule `CNc1ccc2ccc(OCc3cncc(-n4cc(-c5ncco5)c5c(N)ncnc54)c3)cc2n1` [Compound I-235], the IC50 in assay [3] was not below 10000 nM.
